# Key:
# [1] = tested on: AMPKα1 wild-type (WT) and knockout (KO) mice; test: Murine hemorrhagic shock model: mean arterial blood pressure and heart rate; type: in vivo
# Source text: Murine model of hemorrhagic shock. The experiments conformed to the Guide for the Care and Use of Laboratory Animals published by the US National Institutes of Health (Eighth edition, 2011) and had the approval of the Institutional Animal Care and Use Committee. Homozygous AMPKα1 wild-type (WT) and AMPKα1 knockout (KO) mice were established on a C57/BL6 genetic background by the crossbreeding (>10 generations) of a breeding pair provided by Dr. Benoit Viollet of the University of Paris Descartes (Paris, France). For these experiments, female AMPKα1 WT and KO mice were generated by a breeding scheme utilizing heterozygous mutant mice. Female mice were used at random stages of the estrous cycle at the age of 3 to 5 months and assigned to the different experimental groups after routine genotyping by quantitative polymerase chain reaction. All mice were allowed free access to water and a maintenance diet in a 12-h light/dark cycle, with room temperature at 21±2° C. Mice were anesthetized with pentobarbital (80 mg/kg) intraperitoneally and prepared for hemorrhagic shock, as previously described. Briefly, either the left or right femoral artery was cannulated using PE-10 tubing, and connected to a blood pressure transducer (PowerLab, AD Instruments, Colorado Springs, CO) for measurement of mean arterial blood pressure (MABP) and heart rate (HR). Blood was removed from the femoral artery over a 10-minute period until MABP reached 30±5 mmHg. The mice were kept in this MABP range for 90 min by additional blood removal or small volume transfusion. At the end of the shock period, mice were resuscitated by infusing their shed blood and twice that amount in Lactated Ringer's solution over a 10-min period. AMPKα1 WT and KO mice were also randomly assigned to two treatment groups: a vehicle group (distilled water, 500 μL) and a humanin-G (100 μg/kg) group. Drug treatment was given intra-arterially as single bolus right before resuscitation, and at 1 and 2 hours thereafter. […] Mice were monitored for 3 hours after resuscitation for cardiovascular parameters. […]
# [2] = tested on: AMPKα1 wild-type (WT) and knockout (KO) mice; test: Plasma levels of humanin by competitive ELISA after hemorrhagic shock; type: in vivo; conditions: 100 μg/kg intra-arterially, 3 h after resuscitation
# Source text: (§1) Murine model of hemorrhagic shock. The experiments conformed to the Guide for the Care and Use of Laboratory Animals published by the US National Institutes of Health (Eighth edition, 2011) and had the approval of the Institutional Animal Care and Use Committee. Homozygous AMPKα1 wild-type (WT) and AMPKα1 knockout (KO) mice were established on a C57/BL6 genetic background by the crossbreeding (>10 generations) of a breeding pair provided by Dr. Benoit Viollet of the University of Paris Descartes (Paris, France). For these experiments, female AMPKα1 WT and KO mice were generated by a breeding scheme utilizing heterozygous mutant mice. Female mice were used at random stages of the estrous cycle at the age of 3 to 5 months and assigned to the different experimental groups after routine genotyping by quantitative polymerase chain reaction. All mice were allowed free access to water and a maintenance diet in a 12-h light/dark cycle, with room temperature at 21±2° C. Mice were anesthetized with pentobarbital (80 mg/kg) intraperitoneally and prepared for hemorrhagic shock, as previously described. […] Mice were monitored for 3 hours after resuscitation for cardiovascular parameters. […]
# Plasma levels of humanin. Endogenous plasma levels of humanin were measured by competitive ELISA ([…], MyBioSource, San Diego, CA) using the protocol recommended by the manufacturer.
# [3] = tested on: AMPKα1 wild-type (WT) and knockout (KO) mice; test: Lung histopathologic analysis after hemorrhagic shock; type: in vivo; conditions: 100 μg/kg intra-arterially, 3 h after resuscitation
# Source text: as §1
# Histopathologic analysis. […] Sections were stained with hematoxylin and eosin and evaluated by an independent observer blinded to the treatment groups. […]
# [4] = tested on: AMPKα1 wild-type (WT) and knockout (KO) mice; test: Lung myeloperoxidase assay (neutrophil infiltration) after hemorrhagic shock; type: in vivo; conditions: 100 μg/kg intra-arterially, 3 h after resuscitation
# Source text: as §1, with “C.” for “C. Mice were anesthetized with pentobarbital (80 mg/kg) intraperitoneally and prepared for hemorrhagic shock, as previously described.”
# Myeloperoxidase assay. Myeloperoxidase (MPO) activity was determined as an index of neutrophil accumulation. […] The rate of change in absorbance was measured by spectrophotometry at 650 nm. MPO activity was defined as the quantity of enzyme degrading […] of hydrogen peroxide/min at 37° C. and expressed in units per 100 mg weight of tissue.
# [5] = tested on: AMPKα1 wild-type (WT) and knockout (KO) mice; test: Plasma levels of cytokines (multiplex array) after hemorrhagic shock; type: in vivo; conditions: AMPKα1 WT or KO mice; 100 μg/kg intra-arterially; 3 h after resuscitation
# Source text: as §1, with “C.” for “C. Mice were anesthetized with pentobarbital (80 mg/kg) intraperitoneally and prepared for hemorrhagic shock, as previously described.”
# Plasma levels of cytokines. Plasma levels of interleukin (IL)-1β, IL-6, IL-10, IL-17, keratinocyte-derived chemokine (KC), and tumor necrosis factor-α (TNFα) were evaluated by a commercially available multiplex array system (Linco-Research, St. Charles, MO) using the protocol recommended by the manufacturer.
# [6] = tested on: AMPKα1 wild-type (WT) and knockout (KO) mice; test: Transmission electron microscopy of heart tissue mitochondria after hemorrhagic shock; type: in vivo; conditions: 100 μg/kg intra-arterially
# Source text: as §1, with “C.” for “C. Mice were anesthetized with pentobarbital (80 mg/kg) intraperitoneally and prepared for hemorrhagic shock, as previously described.”
# Transmission electron microscopy. […] The total number of mitochondria, and the presence of abnormal mitochondria with loose matrix, fragmented cristae and membranes were determined in four consecutive cells in four different sections for each animal by using NIH ImageJ analysis.
# [7] = tested on: AMPKα1 wild-type (WT) and knockout (KO) mice; test: ATP assay in heart tissue after hemorrhagic shock; type: in vivo; conditions: 100 μg/kg intra-arterially, 3 h after resuscitation
# Source text: as §1
# ATP assay. ATP levels were measured in heart tissue homogenates using a commercially available ATP assay kit (BioVision, Milpitas, CA) and following the protocol recommended by the manufacturer.
# [8] = tested on: STAT3 and Complex I subunit GRIM-19; test: Western blot of pSTAT3(Ser727) and GRIM-19 in mitochondrial extracts of lung and heart; type: in vivo, mice
# Source text: Murine model of hemorrhagic shock. The experiments conformed to the Guide for the Care and Use of Laboratory Animals published by the US National Institutes of Health (Eighth edition, 2011) and had the approval of the Institutional Animal Care and Use Committee. Homozygous AMPKα1 wild-type (WT) and AMPKα1 knockout (KO) mice were established on a C57/BL6 genetic background by the crossbreeding (>10 generations) of a breeding pair provided by Dr. Benoit Viollet of the University of Paris Descartes (Paris, France). For these experiments, female AMPKα1 WT and KO mice were generated by a breeding scheme utilizing heterozygous mutant mice. Female mice were used at random stages of the estrous cycle at the age of 3 to 5 months and assigned to the different experimental groups after routine genotyping by quantitative polymerase chain reaction. All mice were allowed free access to water and a maintenance diet in a 12-h light/dark cycle, with room temperature at 21±2° C. Mice were anesthetized with pentobarbital (80 mg/kg) intraperitoneally and prepared for hemorrhagic shock, as previously described. Briefly, either the left or right femoral artery was cannulated using PE-10 tubing, and connected to a blood pressure transducer (PowerLab, AD Instruments, Colorado Springs, CO) for measurement of mean arterial blood pressure (MABP) and heart rate (HR). Blood was removed from the femoral artery over a 10-minute period until MABP reached 30±5 mmHg. The mice were kept in this MABP range for 90 min by additional blood removal or small volume transfusion. At the end of the shock period, mice were resuscitated by infusing their shed blood and twice that amount in Lactated Ringer's solution over a 10-min period. AMPKα1 WT and KO mice were also randomly assigned to two treatment groups: a vehicle group (distilled water, 500 μL) and a humanin-G (100 μg/kg) group. Drug treatment was given intra-arterially as single bolus right before resuscitation, and at 1 and 2 hours thereafter. Dose of humanin was chosen according to reported pharmacokinetics and pharmacodynamics of the drug in the mice. Mice were monitored for 3 hours after resuscitation for cardiovascular parameters. […] Mice were sacrificed at 3 hours after resuscitation and blood, heart and lungs were collected for biochemical assays.
# Mitochondrial extracts. Mitochondria were isolated from hearts and lungs using a commercially available mitochondria isolation kit (TermoFisher Scientific, Waltham, MA) and following the protocol recommended by the manufacturer. The Bradford protein assay was used for quantitative determination of total proteins.
# Western blot analysis. Cytosol and nuclear content of STAT3 and its two phosphorylated active forms pSTAT3(Tyr705) and pSTAT3(Ser727), and mitochondrial content of pSTAT3(Ser727) and the Complex I subunit GRIM-19 (gene associated with retinoid-IFN-induced mortality) were determined by immunoblotting analyses. Extracts were heated at 70° C. in equal volumes of ×4 Protein Sample Loading Buffer. Twenty μg of protein were loaded per lane on a 10% Bis-Tris gel. Proteins were separated electrophoretically and transferred to nitrocellulose membranes. Immunoblotting was performed using the IBind Flex Western System (Thermo Fischer Scientific, Waltham, MA) that applies sequential lateral flow to perform blocking and antibody binding. […] For all immunoblotting, the Odyssey LI-COR scanner and software (LI-COR Biotechnology, Lincoln, NE) were used for detection and quantitative analysis.
# [9] = heart mitochondria, WT or KO mice, compared to vehicle-treated mice
substance,measurement,setting,value
"[Gly14]-Humanin (MAPRGFSCLLLLTGEIDLPVKRRA) [humanin-G, synthetic humanin analogue, serine at position 14 replaced by glycine]",MABP recovery to baseline,"[1]; AMPKα1 KO mice, 100 μg/kg intra-arterially at resuscitation, 1 h, 2 h",did not completely recover to baseline
same,mean arterial blood pressure (MABP),"[1]; AMPKα1 WT and KO female mice, 100 μg/kg intra-arterially at resuscitation and 1 h and 2 h thereafter, compared to vehicle-treated groups",significantly ameliorated
same,heart rate (HR),"[1]; AMPKα1 WT or KO mice, 100 μg/kg intra-arterially, compared to vehicle-treated groups",did not affect
same,plasma humanin levels compared to vehicle-treated groups,[2]; AMPKα1 WT and KO mice,not statistically different
same,plasma levels of humanin compared to control mice,"[2]; AMPKα1 WT mice, but not KO mice",comparable with levels of control mice
same,lung architecture (histology),[3],significantly improved
same,lung MPO activity,[4],significantly reduced
same,"plasma levels of cytokines (IL-1β, IL-6, IL-10, IL-17, KC, TNFα)",[5],did not affect
same,cardiac mitochondrial damage,"[6]; AMPKα1 KO mice, 3 h after resuscitation",reduced
same,cardiac mitochondrial structural changes,[6]; AMPKα1 WT mice after hemorrhagic shock,No abnormal structural changes
same,cardiac ATP levels,[7],increased
same,mitochondrial expression of GRIM-19 in heart,[8]; [9],did not affect
same,mitochondrial expression of pSTAT3(Ser727) in heart,[8]; [9],did not affect
same,mitochondrial expression of pSTAT3(Ser727) in lung,"[8]; isolated lung mitochondria, WT and KO mice, 100 μg/kg intra-arterially","slightly, but not significantly, increased"
same,GRIM-19 expression in lung mitochondria,"[8]; KO mice, 100 μg/kg intra-arterially",did not affect
same,GRIM-19 expression in lung mitochondria,"[8]; WT mice, 100 μg/kg intra-arterially",restored levels of GRIM-19 similarly to basal levels

# — patent publication US20260166121A1, “COMPOSITIONS AND METHODS FOR THE TREATMENT OF HEMORRHAGIC SHOCK” (Children's Hospital Medical Center, priority 2022, published 2026)
